{"source": "ChEMBL document CHEMBL1131535", "about": "“Conformation-function relationship of vitamin D: conformational analysis predicts potential side-chain structure” (1998)"}
{"test_system": "HL-60", "experiment": "Relative differentiating activity of HL-60 cells when the reference value of […] is defined as 1.", "type": "functional, Homo sapiens"}
{"smiles": "C=C1/C(=C\\C=C2/CCCC3(C)C2CCC3[C@H](C)/C=C/CC(O)(CC)CC)C[C@@H](O)C[C@@H]1O", "note": "(stereo not given in full)", "Relative differentiating activity": 60}
{"smiles": "C=C1/C(=C\\C=C2/CCCC3(C)C2CCC3[C@H](C)CCCC(F)(F)C(C)(C)O)C[C@@H](O)C[C@@H]1O", "note": "(stereo not given in full)", "Relative differentiating activity": 10}
{"smiles": "C=C1/C(=C\\C=C2/CCCC3(C)C([C@H](C)CC#CC(C)(C)O)=CCC23)C[C@@H](O)C[C@@H]1O", "note": "(stereo not given in full)", "Relative differentiating activity": 10}
{"smiles": "C=C1/C(=C\\C=C2/CCCC3(C)C([C@H](C)CC#CC(O)(C(F)(F)F)C(F)(F)F)=CCC23)C[C@@H](O)C[C@@H]1O", "note": "(stereo not given in full)", "Relative differentiating activity": 80}
{"smiles": "C=C1/C(=C\\C=C2/CCCC3(C)C2CCC3[C@H](C)/C=C/CCC(C)(C)O)C[C@@H](O)C[C@@H]1O", "note": "(stereo not given in full)", "Relative differentiating activity": 10}
{"smiles": "C=C1/C(=C\\C=C2/CCCC3(C)C2CCC3[C@H](C)/C=C/CCCC(C)(C)O)C[C@@H](O)C[C@@H]1O", "note": "(stereo not given in full)", "Relative differentiating activity": 10}
{"smiles": "C=C1/C(=C\\C=C2/CCCC3(C)C2CCC3[C@H](C)/C=C/CC(O)(C(F)(F)F)C(F)(F)F)C[C@@H](O)C[C@@H]1O", "note": "(stereo not given in full)", "Relative differentiating activity": 30}
{"test_system": "U-937", "experiment": "Relative differentiating activity of U 937 cells when the reference value of […] is defined as 1.", "type": "functional, Homo sapiens"}
{"smiles": "C=C1/C(=C\\C=C2/CCCC3(C)C2CCC3[C@@H](C)/C=C/CCC(O)(CC)CC)C[C@@H](O)C[C@@H]1O", "note": "(stereo not given in full)", "Relative differentiating activity": 1000}
{"smiles": "C=C1/C(=C\\C=C2/CCC[C@]3(C)[C@@H]([C@H](C)/C=C/C=C/C(O)(CC)CC)CC[C@@H]23)C[C@@H](O)C[C@@H]1O", "note": "[SEOCALCITOL]", "Relative differentiating activity": 67}
{"smiles": "C=C1/C(=C\\C=C2/CCCC3(C)C2CCC3[C@@H](C)CCCCC(O)(CC)CC)C[C@@H](O)C[C@@H]1O", "note": "(stereo not given in full)", "Relative differentiating activity": 200}
{"smiles": "C=C1/C(=C\\C=C2/CCC[C@]3(C)[C@@H](C(C)OCCCC(O)(CC)CC)CC[C@@H]23)C[C@@H](O)C[C@@H]1O", "note": "(single isomer, unassigned) [LEXACALCITOL]", "Relative differentiating activity": 20}
{"smiles": "C=C1/C(=C\\C=C2/CCCC3(C)C2CCC3[C@H](C)CCCCC(O)(CC)CC)C[C@@H](O)C[C@@H]1O", "note": "(stereo not given in full)", "Relative differentiating activity": 5}
{"smiles": "C=C1/C(=C\\C=C2/CCCC3(C)C2CCC3[C@@H](C)CCCCC(C)(C)O)C[C@@H](O)C[C@@H]1O", "note": "(stereo not given in full)", "Relative differentiating activity": 200}
{"smiles": "C=C1/C(=C\\C=C2/CCC[C@]3(C)[C@@H]([C@@H](C)OCCCC(O)(CC)CC)CC[C@@H]23)C[C@@H](O)C[C@@H]1O", "note": "[LEXACALCITOL]", "Relative differentiating activity": 20000}
{"smiles": "C=C1/C(=C\\C=C2/CCCC3(C)C2CCC3[C@@H](C)OCCCC(C)(C)O)C[C@@H](O)C[C@@H]1O", "note": "(stereo not given in full)", "Relative differentiating activity": 1176}
